Assay results as given in US20160274108A1, “DIAGNOSTIC METHODS FOR PAR4 ANTAGONIST THERAPY” (BRISTOL-MYERS SQUIBB COMPANY, priority 2013, published 2016).

How the values were obtained:
[1] = molecular target: T1, protease-activated receptor type 4 (PAR4) (Homo sapiens, UniProt Q96RI0); conditions: abstract of Lee et al., J. Med. Chem., 44(22):3746-3749 (2001); cited from earlier work
T1 sequence (Q96RI0 18-385): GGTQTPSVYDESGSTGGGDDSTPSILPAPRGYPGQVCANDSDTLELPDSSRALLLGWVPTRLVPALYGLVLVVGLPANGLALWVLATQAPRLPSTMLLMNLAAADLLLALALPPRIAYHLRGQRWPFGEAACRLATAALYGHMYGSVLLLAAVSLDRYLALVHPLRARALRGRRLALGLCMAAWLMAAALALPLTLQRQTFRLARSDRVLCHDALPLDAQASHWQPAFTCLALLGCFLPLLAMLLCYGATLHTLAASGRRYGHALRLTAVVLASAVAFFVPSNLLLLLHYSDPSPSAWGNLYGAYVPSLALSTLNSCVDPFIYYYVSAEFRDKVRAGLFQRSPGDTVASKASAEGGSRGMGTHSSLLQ

platelets [2] = test: Platelet activation by whole blood flow cytometry: P-selectin (CD62P) expression; assay type: cell-based, human; conditions: PAR1 1 μM final, 501 healthy subjects
Procedure: (§1) PAR1 and PAR4 agonists were supplied as freeze dried peptides and reconstituted with HEPES buffered saline [HBS, 0.14M NaCl, 5 mM KCl, 1 mM MgSO4, 10 mM HEPES (sodium salt), pH 7.4] to 1 mM concentrations prior to storing in single use aliquots at −80° C. Immediately prior to use PAR1 was thawed and diluted in HBS to 10 μM as a working concentration to give a final assay concentration of 1 μM. Similarly PAR4 was diluted to 100 μM working concentration to give a final assay concentration of 10 μM.
(§2) The antibodies used for flow cytometry were: rabbit FITC-anti-fibrinogen (Dako Ltd, Ely, UK), PE-anti-CD62P and a relevant PE-isotype control (Bristol Institute for Transfusion Science, Bristol, UK). HBS was used for all dilutions.
(§3) Blood was processed within 15 minutes of venesection, with 5 μL of citrated whole blood containing aspirin (100 μM) and hirudin (10 U/mL) being added to 45 μL of HBS containing apyrase (4 U/mL), either FITC-anti-fibrinogen or PE anti-CD62P, and either PAR1 (1 μM final concentration) or PAR4 (10 μM final concentration). […] Platelets were identified by light scatter and results were recorded as the percentage of platelets positive for the relevant activation marker. […]

platelets [3] = test: Platelet activation by whole blood flow cytometry: fibrinogen binding; assay type: cell-based, human; conditions: PAR1 1 μM final, 501 healthy subjects
Procedure: as §1, §2, §3

Compound	inhibition of PAR4-dependent platelet activation [1]	P-selectin expression, % positive platelets, median (platelets [2])	fibrinogen binding, % positive platelets, median (platelets [3])
CCOC(=O)c1ccc(-c2nn(Cc3ccccc3)c3ccccc23)cc1	selective and potent inhibitor	–	–
PAR1: PAR1 agonist, freeze dried peptide supplied by Bristol-Myers Squibb; Example 2 control is Compound A, SFFLRR (SEQ ID NO: 39)	–	86.8%	19.7%
